Test results as given in patent US11279734B2, “Solution-phase affinity selection of inhibitors from combinatorial peptide libraries” (Massachusetts Institute of Technology, priority 2017, dated 2022).
pKd: −log10 of the molar value. Entries after “also recorded” stand apart in the source; their conditions may differ. Read-outs that look alike come from different tables or passages of the source. Where no end group is shown, it is not given here. [ ]: non-standard residue; d: D form. Cha = N[C@@H](CC1CCCCC1)C(=O)O

How the values were obtained:
MDM2 [1] = target: T1, MDM2 (Homo sapiens, UniProt Q00987); experiment: HPSEC affinity selection under increasing stringency (EIC peak area); assay type: binding; conditions: usual stringency vs 100 μM of 6 and MDM2 lowered to […]
Experimental: SEC conditions: unless stated otherwise, high performance size exclusion column BIO-SEC-3, 7.8×150 mm, 3 μm particle size and 100 Å pore size was used. 100 μL of binding mixture containing peptides or peptide libraries and protein target was isocratically eluted in buffered mobile phase (25 mM Tris, 50 mM NaCl, pH 7.5, with or without L-arginine supplementation) at 1 mL/min flow rate for 15 minutes (typical backpressure ˜80-90 bars for a brand new column). Generally, mobile phase is also used as the binding buffer for affinity selection experiments, and systematically before each experiment a blank injection is performed consisting in a protein only injection. During affinity selection experiments the breakthrough fraction (protein fraction) was monitored by UV and collected. The latter contained the protein-binder complexes which were dissociated using 0.2% formic acid before characterization using LC-MS or LC-MS/MS analysis.

SUMO-25-109 MDM2 [2] = target: T2, SUMO-25-109 MDM2 (Homo sapiens, UniProt Q00987); experiment: BLI in solution competition assay; assay type: binding; conditions: for binding to MDM2 (in words): acetylated peptides or mini-proteins, BLI
Experimental: Calibration Curve: Streptavidin (SA) sensors were soaked in competition buffer (PBS supplemented with 0.05% Tween-20, and L-arginine pH 7.5) for 10 minutes at 30° C. […] The thus obtained biotinylated 63a (0.5 μM in competition buffer) was loaded on the SA sensor for 10 minutes at 30° C. and 1000 rpm. […] A calibration curve corresponding to binding response at equilibrium (in nm)=f(free [MDM2] in nM) was generated using GraphPad Prism 6 software using non-linear regression analysis (see FIG. 5).
Meanwhile, SA sensors were soaked in competition buffer for 10 minutes at 30° C. […] Based on the binding (nm) values, the concentration of “free” MDM2 was interpolated for each sample using the calibration curve. […] The following equation was used to generate fitted curves.

SUMO-25-109 MDM2 [3] = target: T2, SUMO-25-109 MDM2; assay type: binding; conditions: biotinylated peptides, BLI
SJSA-1 cells [4] = experiment: Western blot analysis of p53 activation (MDM2, p21); assay type: cell-based; conditions: 10 μM, 12 hours
Experimental: SJSA-1 and K-562 cells were seeded in 6 well plates at a cell density of 350*10^3 cells/well in RPMI-1640 media supplemented with 10% serum and 1% Pen-Strep and incubated overnight at 37° C. and 5% CO2. The next day cells were treated with peptides and controls at 10 μM for 12 hours. Then cells were harvested and their pellets washed (2×) with PBS and lysed in 100 μL of RIPA buffer supplemented with Roche protease inhibitor cocktail on ice for 30 minutes. The lysates were clarified by brief centrifugation at 4° C. and total protein concentration was determined using the Bio-Rad DC protein assay. Aliquots of the cell lysates were run on 12% Tris-Glycine polyacrylamide gels (Invitrogen). After transfer using Trans-Blot Turbo Transfer system (Biorad), the membrane was blocked at room temperature for 2 hours with LI-COR blocking buffer. The membrane was cut in three and each part was incubated respectively with anti-MDM2 (mouse, SMP14: sc-965, Santa Cruz Biotechnology), anti-p21 (mouse, F-5: sc-6246, Santa Cruz Biotechnology) and anti-GAPDH (rabbit, GAPDH (D16H11) XP®, Cell Signaling Technology) antibodies in TBST overnight at 4° C. The membranes were washed and incubated with the appropriate secondary antibodies in TBST for 1 h at room temperature, washed again, then imaged with the LI-COR Odyssey infrared imaging system (see FIGS. 103-105).

SJSA-1 cells [5] = experiment: Cell viability assay (MTS); assay type: cell-based; conditions: 72 hours
Experimental: (§1) SJSA-1, K-562 and MCF-7 cells were plated in 96-well plates in RPMI-1640 containing 10% FBS and 1% Pen-Strep and the next day were treated with the indicated concentrations of peptide or vehicle control. Peptide stocks were diluted into RPMI-1640 containing 10% FBS and 1% Pen-Strep to achieve 2× working individual stock solutions that were thoroughly mixed then diluted into the treatment wells. Cell viability was assayed after 72 hours by addition of CellTiter 96® AQueous One Solution Cell Proliferation reagent (MTS). All assays were performed in triplicate, and data was normalized to vehicle treated control and analyzed using Prism software (GraphPad Software).

K-562 cells = experiment: Cell viability assay (MTS); assay type: cell-based; conditions: K-562 p53-null cells, 72 hours
Experimental: as §1

MCF-7 cells = experiment: Cell viability assay (MTS); assay type: cell-based; conditions: MCF-7 cells (MDM2 and MDMX overexpressing), 72 hours
Experimental: as §1

MDM2 [6] = target: T1, MDM2; experiment: Kd MDM2 (nM)
Source text: Table printed on a drawing sheet, Figure 2B
Head of the field: Kd MDM2 (nM)
The patent's description of the figure: FIGS. 2A-2F: Rapid combinatorial mapping of pDI (6) key binding residues and affinity selection of potent non-canonical inhibitors of ^25-109MDM2 and C-CA proteins. FIG. 2A) Combinatorial mapping of pDI (6) binding hotspots, library design. Represented are 6's randomized residues using L-configured (circles) natural amino acids. FIG. 2B) Affinity selected sequences from Library 1 and 2 at different stringencies (sequences 1 to 9) were validated after resynthesis and biotinylation or acetylation (peptides 1a to 6a and 7b to 9b) using bio-layer interferometry (BLI). In bold italic are represented randomized residues, and those that were varied compared to sequence 6. FIG. 2C) Expanding linear inhibitor hotspots to non-canonical amino acids. Library 3 was designed around 6 while Library 4 was designed around CAI (37) inhibitor. Depicted are randomized residues using non-canonical amino acids (abbreviations for each monomer are indicated in bold). FIG. 2D) Affinity selection from Library 3 at higher stringency using 6 as a soluble competitive inhibitor. […]
First copying reader's note: Randomized residues are printed in italic (bold or grey); this styling is not kept in the grid.
Where the first naming reader finds the target: head: Kd MDM2 (nM)

Question: How did the “EIC peak area variation from condition (A) to (D)” value (MDM2 [1]) turn out when LT(F2f)EHYWAQ(Cba)TSK [peptide 11] was run?
Answer: Its value is 30 fold.

Question: How did the “binding to MDM2 (in words)” value (SUMO-25-109 MDM2 [2]; in solution competition) turn out when “LT(F2f)KEY(Hexa)AQ(Cba)(K)SAA [peptide 10b-S4]” was run?
Answer: Its value is “weakened or abrogated binding”.

Question: For LT(F2f)KEYWAE(Cba)KSAA [peptide 11b-S4], which “binding to MDM2 (in words)” value (SUMO-25-109 MDM2 [2]; in solution competition) is on record?
Answer: Its value is “weakened or abrogated binding”.

Question: For “LT(F2f)EHY(Hexa)AQ(Cba)TSK [peptide 10a]”, which “binding to MDM2 (in words)” value (SUMO-25-109 MDM2 [3]) is on record?
Answer: Its value is “high affinity binder”.

Question: For “LT(F2f)EHY(Hexa)AQ(Cba)TSK [peptide 10b]”, which “binding to MDM2 (in words)” value (SUMO-25-109 MDM2 [2]; in solution competition) is on record?
Answer: Its value is “low nanomolar affinity to MDM2”.

Question: With “Bio-(PEG)4- Leu Thr F2f Glu His Tyr Trp Ala Gln Cba Thr Ser Lys -NH2 [(SEQ ID NO: 12) | 11a]” as the substance, how does the pKd (MDMX) read?
Answer: Its pKd is 7.48.

Question: With “Bio-(PEG)4- Leu Thr Phe Glu His Tyr Trp Ala Gln Leu Thr Ser Lys -NH2 [(SEQ ID NO: 8) | 6a]” as the substance, how does the pKd (MDMX) read?
Answer: Its pKd is 7.08.

Question: KAWYAN[Cha]EKLLR [peptide 45] was tested. Which pKd (SUMO-25-109 MDM2 [2]; in solution competition, acetylated peptide or mini-protein, fitted titration curve) did it give?
Answer: The pKd was 8.21.

Question: LT(F2f)EHY(Hexa)AQ(Cba)TSK [peptide 10] was tested. Which “EIC peak area variation from condition (A) to (D)” value (MDM2 [1]) did it give?
Answer: The value was 4.5 fold.

Question: For “LT(F2f)(R8)EFWAQ(Cba)(S5)SAA [peptide 11b-M]”, which “binding to MDM2 (in words)” value (SUMO-25-109 MDM2 [2]; in solution competition) is on record?
Answer: The value was “low nanomolar affinity”.

Question: What about the “upregulation of MDM2 and p21” value (SJSA-1 cells [4]) of the same substance?
Answer: The value was “upregulated p21 and MDM2”.

Question: What about the “cell killing / viability” value (SJSA-1 cells [5]) of the same substance?
Answer: The value was “cell-killing properties”.

Question: How did the “binding to MDM2 (in words)” value (SUMO-25-109 MDM2 [2]; in solution competition) turn out when LT(F2f)EHYWAQ(Cba)TSK [peptide 11b] was run?
Answer: The value was “low nanomolar affinity”.

Question: With LTFEHYWAQFTSK [peptide 5a] as the substance, how does the “binding to MDM2 (in words)” value (SUMO-25-109 MDM2 [3]) read?
Answer: The value was “nanomolar binder”.

Question: How did the pKd (MDMX) turn out when “Bio-(PEG)4- Leu Thr F2f Glu His Tyr Hexa Ala Gln Cba Thr Ser Lys -NH2 [(SEQ ID NO: 11) | 10a]” was run?
Answer: Its pKd is 7.59.

Question: Which results are given for “LT(F2f)(Dap)EYWAQ(Cba)(Dap)SAA [peptide 11b-S1]”?
Answer: binding to MDM2 (in words) (SUMO-25-109 MDM2 [2]; in solution competition): low nanomolar affinity; upregulation of MDM2 and p21 (SJSA-1 cells [4]): upregulated MDM2 and P21 markers; also recorded: upregulated p53 gene products p21 and MDM2; cell viability (K-562 cells): did not significantly lower K-562 viability; cell viability (MCF-7 cells): lowered viability for MCF-7 cells; cell killing / viability (SJSA-1 cells [5]): cell-killing properties; also recorded: killed SJSA-1 cells

Question: Which “binding to MDM2 (in words)” value (SUMO-25-109 MDM2 [2]; in solution competition) does the source give for “LT(F2f)(R8)EY(Hexa)AQ(Cba)(S5)SAA [peptide 10b-M]” here?
Answer: The value was “low nanomolar affinity”.

Question: What about the “upregulation of MDM2 and p21” value (SJSA-1 cells [4]) of the same substance?
Answer: The value was “upregulated MDM2 and P21 markers”.

Question: What about the cell viability (K-562 cells) of the same substance?
Answer: Its cell viability is “did not significantly lower K-562 viability”.

Question: What about the cell viability (MCF-7 cells) of the same substance?
Answer: Its cell viability is “lowered viability for MCF-7 cells”.

Question: And the “cell killing / viability” value (SJSA-1 cells [5])?
Answer: The value was “cell-killing properties; also recorded: killed SJSA-1 cells”.

Question: LTFCys(ar)HYWAQFCys(ar)SK [peptide 61a] was tested. Which “binding to MDM2 (in words)” value (SUMO-25-109 MDM2 [3]) did it give?
Answer: The value was “substantially weaker binding compared to 60a”.

Question: “Ac-LTYEHYWAQLTSK-NH2 [SEQ ID NO: 67 | 8b]” was tested. Which pKd (MDM2 [6]) did it give?
Answer: Its pKd is 5.57.

Question: What does the source list for “LT(F2f)(R8)EY(Napa)AE(Cba)KSAA [peptide 27b-M]”?
Answer: binding to MDM2 (in words) (SUMO-25-109 MDM2 [2]; in solution competition): low nanomolar affinity; upregulation of MDM2 and p21 (SJSA-1 cells [4]): upregulated p21 and MDM2; cell viability (K-562 cells): did not significantly lower K-562 viability; cell viability (MCF-7 cells): lowered viability for MCF-7 cells; cell killing / viability (SJSA-1 cells [5]): cell-killing properties

Question: Which “affinity for MDM2 lower than 54b” value (SUMO-25-109 MDM2 [2]; label free approach, relative to 54b) does the source give for KAWYAN(CF3f)EKLLR [peptide 53] here?
Answer: Its value is “about 20 fold”.
